Read-outs that look alike come from different tables or passages of the source. Each block holds one molecule with its values, some of them ahead of it.
How the values were obtained:
[1] = test system: subjects with mixed dyslipidemia; conditions: 8 weeks, cited from earlier work
[2] = Exposure study in hepatic impairment (Child-Pugh classes B and C); format: in vivo, human; conditions: subjects with significant hepatic impairment
Description: These amounts represent an average daily dose, and not necessarily an amount given at a single dose. Dosing may be as frequent as more than once/day (where the amount, or daily dose, will be divided between the number of administrations per day), but will more typically be once/day (where the amount is given in a single administration). Optionally, particularly in cases of significant hepatic impairment, the dosing may be less frequent than once/day, such as between once/week and every other day, for example once/week, twice/week (especially with the doses at least three days apart), three times/week (especially with the doses at least two days apart), or every other day; so that, as an example, a subject may receive 5 mg twice/week for an amount (daily dose) of 1.4 mg/day.

subjects with PBC [3] = assay: Low-dose trial in PBC (NCT02955602); format: in vivo, human
Experimental: In the main study, running for 12 weeks, subjects were to receive either 2, 5, or 10 mg/day; while in an extension study, running for an additional 40 weeks, subjects in the 2 mg/day group were allowed to continue at the 2 mg/day dose or shift to either 5 or 10 mg/day, subjects in the 5 mg/day group were allowed to continue at the 5 mg/day dose or shift to 10 mg/day, and subjects in the 10 mg/day group were allowed to continue at the 10 mg/day dose or shift to 5 mg/day. At baseline (the mean of the screening values and the value at day 1), the subjects had the following values, with numbers in parentheses denoting standard deviations: The study has now been analyzed through 26 weeks: the 12 weeks of the main study and 14 weeks of the extension study.

[4] = Preclinical study of elimination; format: in vivo
subjects with PBC [5] = assay: High dose trial in PBC (NCT02609048); format: in vivo, human; conditions: for cases of asymptomatic increases in transaminases: reversible on cessation of treatment, no elevation of TBIL; for mean decrease from baseline in ALP: last observation carried forward, at least two weeks of treatment; for reduction of LDL-C: after two weeks of dosing
Description: The trial subjects were adult, male or female, with a diagnosis of PBC by at least two of the following three criteria: (a) a history of alkaline phosphatase (ALP) above the upper limit of normal (ULN) for at least six months, (b) positive anti-mitochondrial antibody titers >1/40 on immunofluorescence or M2 positive by enzyme linked immunosorbent assay or positive PBC-specific antinuclear antibodies, and (c) documented liver biopsy result consistent with PBC, on a stable and recommended dose of UDCA for the past twelve months or UDCA intolerant, and ALP≥1.67×ULN. Exclusion criteria included AST or ALT≥3×ULN, total bilirubin (TBIL)≥2×ULN, autoimmune hepatitis or a history of chronic viral hepatitis, PSC, the current use of fibrates or simvastatin, the use of colchicine, methotrexate, azathioprine, or systemic steroids in the previous two months, the use of an experimental treatment for PBC, and the use of an experimental or unapproved immunosuppressant. The primary study endpoint was decrease in ALP, and the secondary endpoint was the responder rate for subjects achieving ALP<1.67×ULN and total bilirubin within normal limit, and >15% decrease in ALP. Additional secondary endpoints were changes in GGT, TBIL, and 5′-nucleotidase, which are other recognized biochemical markers of cholestasis. […] During the study, three cases of asymptomatic increases in transaminases were observed (two in the 200 mg and one in the 50 mg groups). All three were reversible on cessation of treatment and were not accompanied by elevation of TBIL. Since the study had already shown a clear efficacy signal, the study was discontinued. […] According to the original statistical plan, changes in ALP were calculated using the last observation carried forward. The mean decreases from baseline in ALP for the 50 mg/day and 200 mg/day dose groups were 57% and 62%, respectively, compared with 0.37% for placebo (p<0.0001 for both). The responder rates for the placebo, 50 mg/day, and 200 mg/day groups were 10%, 67% and 100%, respectively, despite the baseline ALP levels being different at 239, 313, and 280 U/L. The p-values comparing the responder rates for the 50 mg/day and 200 mg/day groups with placebo were 0.020 and 0.0004 (Fisher's Exact Test), respectively.

[6] = test system: subjects with an intrahepatic cholestatic disease such as PSC; assay: Trial in PSC; format: in vivo, human; conditions: 1, 2, 5, and 10 mg/day oral
Experimental: Subjects are permitted their usual other medications, including UDCA. […] At each visit, after a 12-hour fast, blood is drawn and urine collected; and a standard metabolic panel, complete blood count, and standard urinalysis are performed. Blood is analyzed for TC, HDL-C, TG, VLDL-C, LDL-C, and apolipoprotein B, for liver function markers such as total and bone-specific ALP, for GGT, and also for total and conjugated bilirubin. The subjects also maintain health diaries, which are reviewed at each visit.

PPARα = target: T1, PPARα (Homo sapiens, UniProt Q07869); conditions: PPARδ vs PPARα; cited from earlier work
T1 sequence (Q07869 1-468): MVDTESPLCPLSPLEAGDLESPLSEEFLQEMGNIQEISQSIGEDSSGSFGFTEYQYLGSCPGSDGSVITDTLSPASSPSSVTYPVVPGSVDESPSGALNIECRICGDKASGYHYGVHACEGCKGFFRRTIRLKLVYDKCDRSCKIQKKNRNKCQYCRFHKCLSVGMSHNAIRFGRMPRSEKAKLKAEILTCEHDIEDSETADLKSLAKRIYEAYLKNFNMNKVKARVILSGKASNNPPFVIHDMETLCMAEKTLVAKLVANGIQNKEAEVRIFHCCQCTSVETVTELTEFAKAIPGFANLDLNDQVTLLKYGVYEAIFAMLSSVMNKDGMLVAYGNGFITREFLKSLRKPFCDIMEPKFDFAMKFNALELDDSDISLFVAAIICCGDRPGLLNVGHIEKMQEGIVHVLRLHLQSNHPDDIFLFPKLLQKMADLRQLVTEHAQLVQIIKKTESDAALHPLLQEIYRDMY

[7] = combined 5 mg/day and 5 to 10 mg/day group, 26 weeks
[8] = through 26 weeks, 2, 5, 10 mg/day
[9] = seladelpar 50 or 100 mg alone or combined with ATV 20 mg, once daily oral, compared to placebo

SMILES: CC(C)c1c(C(=O)Nc2ccccc2)c(-c2ccccc2)c(-c2ccc(F)cc2)n1CC[C@@H](O)C[C@@H](O)CC(=O)O [ATV, atorvastatin, reference compound]
increase of GGT ([1]; ATV 20 mg group): 2%
reduction of ALP ([1]; ATV 20 mg group): 6%

area-under-the-curve exposure for seladelpar and two of its three principal metabolites [2]: increase
maximum plasma concentration of seladelpar [2]: significant increase
signals for drug-induced pruritus (subjects with PBC [3]; [8]): no signals for drug-induced pruritus
concentration of the drug in bile [4]: concentrated in bile
main route of elimination [4]: through bile
cases of asymptomatic increases in transaminases (subjects with PBC [5]; 50 mg group): one
cases of asymptomatic increases in transaminases (subjects with PBC [5]; 200 mg group): two
SMILES: CCO[C@H](COc1ccc(C(F)(F)F)cc1)CSc1ccc(OCC(=O)O)c(C)c1 [seladelpar, [4-({(2R)-2-ethoxy-3-[4-(trifluoromethyl)phenoxy]propyl}sulfanyl)-2-methylphenoxy] acetic acid]
mean reduction in ALP (subjects with PBC [3]; 2 mg/day, 12 weeks): 21%
mean reduction in ALT (subjects with PBC [3]; 2 mg/day, 12 weeks): 9%
mean reduction in ALP (subjects with PBC [3]; 5 mg/day, 12 weeks): 33%
mean reduction in ALT (subjects with PBC [3]; 5 mg/day, 12 weeks): 28%
mean reduction in ALP (subjects with PBC [3]; 5 mg/day, 26 weeks): 45%
mean reduction in ALT (subjects with PBC [3]; 10 mg/day group, 26 weeks): 43%
subjects with ALP≤1.67×ULN (subjects with PBC [3]; 10 mg/day group, 26 weeks): 79%
subjects with ALP≤ULN (subjects with PBC [3]; 10 mg/day group, 26 weeks): 32%
subjects with TBIL≤ULN (subjects with PBC [3]; 10 mg/day group, 26 weeks): 89%
subjects with a decrease in ALP of ≥15% (subjects with PBC [3]; 10 mg/day group, 26 weeks): 89%
mean reduction in ALP (subjects with PBC [3]; 10 mg/day, 12 weeks): 45%
mean reduction in ALT (subjects with PBC [3]; 10 mg/day, 12 weeks): 35%
mean reduction in ALP (subjects with PBC [3]; 10 mg/day, 26 weeks): 43%
mean reduction in ALP (subjects with PBC [3]; 5 to 10 mg/day, 26 weeks): 43%
mean reduction in ALT (subjects with PBC [3]; [7]): 40%
subjects with ALP≤1.67×ULN (subjects with PBC [3]; [7]): 68%
subjects with ALP≤ULN (subjects with PBC [3]; [7]): 26%
subjects with TBIL≤ULN (subjects with PBC [3]; [7]): 95%
subjects with a decrease in ALP of ≥15% (subjects with PBC [3]; [7]): 95%
transaminase safety signals (subjects with PBC [3]; [8]): No transaminase safety signals
serious adverse events (subjects with PBC [3]; through 26 weeks, all doses, all deemed unrelated to seladelpar): 6
adverse events leading to seladelpar discontinuation (subjects with PBC [3]; through 26 weeks, all doses, both deemed unrelated to seladelpar): 2
reduction of LDL [1, 9]: 18-43%
reduction of apolipoprotein B-100 [1, 9]: 20-38%
reduction of free fatty acids [1, 9]: 16-28%
reduction of high-sensitivity C-reactive protein (hs-CRP) [1, 9]: 43-72%
reduction of non-HDL-C [1, 9]: 18-41%
reduction of triglycerides (TGs) [1, 9]: 26-30%
rise of HDL-C [1, 9]: 1-12%
number of patients with the metabolic syndrome and a preponderance of small LDL particles ([1]; seladelpar alone and in combination with ATV): reduced the number of patients with the metabolic syndrome and a preponderance of small LDL particles
reduction of ALP ([1]; seladelpar groups): 32-43%
reduction of GGT ([1]; seladelpar groups): 24-28%
responder rate (ALP<1.67×ULN, total bilirubin within normal limit, >15% decrease in ALP) (subjects with PBC [5]; 50 mg/day): 67%
mean decrease from baseline in ALP (subjects with PBC [5]; 50 mg/day oral): 57%
reduction of LDL-C (subjects with PBC [5]; 50 mg/day): 16%
responder rate (ALP<1.67×ULN, total bilirubin within normal limit, >15% decrease in ALP) (subjects with PBC [5]; 200 mg/day): 100%
mean decrease from baseline in ALP (subjects with PBC [5]; 200 mg/day oral): 62%
reduction of LDL-C (subjects with PBC [5]; 200 mg/day): 26%
adverse events of pruritus (subjects with PBC [5]; on treatment, 50 and 200 mg/day): no adverse events of pruritus were reported on treatment
improvement in disease, manifested by decrease in ALP and GGT [6]: improvement in their disease
specificity compared with PPARα (PPARα): > 600 fold
